Test results: PMC9404653, “EphA4 targeting agents protect motor neurons from cell death induced by amyotrophic lateral sclerosis -astrocytes” (iScience, 2022)
Where two headings read alike, the source gives them in different places. Non-standard residues stand in square brackets, D forms with d. Residues, ends and D or L forms follow the SMILES beside them. *: point of attachment. Cyclohexanoyl(1S,3S-3-NH2) = N[C@H]1CCC[C@H](C(=O)*)C1; Trp(5-OH) = N[C@@H](Cc1c[nH]c2ccc(O)cc12)C(=O)O; NH(4-morpholinophenyl) = c1cc(N2CCOCC2)ccc1N*; Bip = N[C@@H](Cc1ccc(-c2ccccc2)cc1)C(=O)O; hArg = N=C(N)NCCCC[C@H](N)C(=O)O; X1 = c1cc(N2CCNCC2)ccc1N*

Experiments:
[1] = tested on: motor neurons co-cultured with patient iAstrocytes (sALS, mutant SOD1); experiment: Patient iAstrocyte:motor neuron co-culture, motor neuron survival; details: 10 μM, sALS patient iAs (ALS1; second patient line Figure S3)
Method: Here, we tested the effectiveness of synthetic agonists by co-culturing patient iAs (2 sALS and 3 mtSOD1, Sup. Table 1) and mouse motor neurons in the presence of 123C4 (Figure 5A). Three days following co-culture surviving motor neurons were imaged (Figure 5B).
At the time of motor neuron seeding, the drug was removed via aspiration, and motor neurons in freshly prepared media were cultured on the iAs monolayer. In addition, 123C4 was also added at the time of co-culture as described in Figure 5A.
To accommodate a compound screen of this size, co-culture assays were adapted to a 384 well format.
Induced Astrocytes were generated by seeding a low quantity of NPCs into astrocyte medium (DMEM media containing 10% FBS and 0.2% N2) for five days. Following differentiation, iAstrocytes were lifted and seeded into a 96 well (10,000 cells per well) or 384 well (2500 cells per well) plate. Differentiations were repeated at separate passages and each differentiation was counted as an independent experiment.
Cells are sorted through a 100 μm tip with sheath pressure of 27. GFP + motor neurons were seeded in a 96 well plate (10,000 cells per well) or 384 well (1,000 cells per well) in triplicate for each condition. Co-cultures were imaged with InCell Analyzer 6000 automated microscopy system for up to six days. […]

[2] = Aqueous solubility by 1H NMR; type: physicochemical; details: water; determined by 1H NMR
EphA4-LBD = target: T1, EphA4-LBD (Homo sapiens, UniProt P54764); experiment: 2D [13C,1H] NMR chemical shift perturbation of 13Cε-Met labeled EphA4-LBD; type: binding; details: for Chemical shift perturbation to Met 115 (G-H loop): 13Cε-Met labeled EphA4-LBD; for Δδ Met 60 / Δδ Met 164: weight average 1H/13C chemical shift perturbation, 20 μM EphA4-LBD, 298 K
T1 construct: Met labeled EphA4-LBD (29-209) (20 μM) in absence (blue)
Method: (§1) Previously, we deployed the HTS by NMR (High-throughput Screening by Nuclear Magnetic Resonance) approach targeting the EphA4 ligand-binding domain to identify possible ligands from a tri-peptide positional scanning library consisting of ∼125,000 agents ([Wu et al., 2013]). Initial screen and subsequent structure-activity relationships studies lead to agent 123C4 (Table 1), with an affinity for the isolated EphA4 ligand-binding domain (LBD) of ∼400 nM by isothermal titration calorimetry (ITC) ([Wu et al., 2013], [2017]). In follow-up studies, we derived a new combinatorial library based on the critical N-terminal aliphatic amine of 123C4 (a common feature also of antagonistic peptides) ([Olson et al., 2016]; [Wu et al., 2013]) and exploited our previous experience with the fHTS by NMR ([Baggio et al., 2017]), we rapidly identified a new hit molecule ([Baggio et al., 2021]). We also developed an efficient strategy to anticipate if ligand binding would induce changes in EphA4 conformation that are more compatible with agonist versus antagonist binding ([Baggio et al., 2021]). This was accomplished by protein NMR using EphA4-LBD that is uniformly labeled with ^13C^ε-methionine ([Wu et al., 2017]). […] In particular, EphA4 residues Met 164, Met 60 (in the binding site), and Met 115 are located in the D-E loop, J-K loop, and G-H loop of the EphA4-LBD, respectively (Figures 1A-1C). […] For example, we reported that the 13mer antagonistic cyclic peptide APY-d3 ([Olson et al., 2016]) induces changes not only in binding site Met 164 and Met 60 resonances, but also in Met 115, located in the G-H loop, that is at the EphA4-LBD dimerization interface (Figure 1D). […] With these considerations in mind, ligand 150D4 was previously derived as described in our recent studies (Table 1; [Baggio et al., 2021]). […] Dissociation constant determination was obtained via isothermal titration calorimetry (ITC) measurements (Table 1, Figure 2). Similarly, selectivity studies were performed via ITC and ligand-binding domain constructs representing the two most closely related Eph domains, namely EphA3 and EphA2 (Table 1). […] These studies culminated in the identification of agonistic agents targeting the EphA4 ligand-binding domain.
NMR spectra were acquired on Bruker Avance III 700MHz spectrometer equipped with a TCI cryoprobe. All NMR data were processed and analyzed using TOPSPIN 3.6.1 (Bruker, Billerica, MA, USA). 2D-[^13C,^1H]-HSQC experiments were acquired with 20 μM proteins using 16 scans with 2,048 and 256 complex data points in the ^1H and […] dimensions, respectively, at 298 K. Chemical shift changes (Δδ) in the 2D [^13C, ^1H] spectra were calculated as weight average perturbations observed in the ^1H and ^13C dimensions using the following Equation: Δδ=1/2∗[(Δ^1H)^2+(0.3∗Δ^13C)^2]

[3] = target: T2, EphA4 ligand-binding domain (Homo sapiens, UniProt P54764); experiment: Isothermal titration calorimetry (ITC) vs EphA4-LBD; details: for N (ITC stoichiometry): ITC curve, Figure 2C/2D; for Kd: ITC, 25°C, 25 mM Tris pH 7.5, 150 mM NaCl, 1% DMSO, mean ± SE, n = 2
Method: as §1
Isothermal titration calorimetry measurements were performed using the Affinity ITC Autosampler from TA Instruments (New Castle, DE). The titrations were performed in a reverse fashion by titrating the protein into the ligand solution. […] Each titration was performed twice and individually using the ITCRun software, analyzed using NanoAnalyze software (TA Instruments, New Castle, DE) and subsequently exported into Microsoft Excel. […]

[4] = target: ephrinA4 or ephrinA5 (Homo sapiens) (UniProt P52803); details: cited from earlier work
[5] = target: T2, EphA4 ligand-binding domain; details: ref Bowden et al., 2009a, 2009b, read-out: Affinity of intact ephrin ligands for EphA4; cited from earlier work

T1 sequence (P54764 29-209): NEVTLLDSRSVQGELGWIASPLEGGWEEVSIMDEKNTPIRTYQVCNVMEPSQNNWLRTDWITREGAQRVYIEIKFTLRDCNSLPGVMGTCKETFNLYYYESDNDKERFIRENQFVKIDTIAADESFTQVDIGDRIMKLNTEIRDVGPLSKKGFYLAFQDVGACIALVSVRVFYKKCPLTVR
T2 sequence (P54764 30-209 limits assumed): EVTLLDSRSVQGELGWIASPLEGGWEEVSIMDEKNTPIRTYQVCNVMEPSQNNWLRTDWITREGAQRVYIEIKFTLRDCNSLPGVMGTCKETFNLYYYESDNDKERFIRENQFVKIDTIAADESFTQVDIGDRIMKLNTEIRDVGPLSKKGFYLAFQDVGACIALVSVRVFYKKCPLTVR
Sequence of EphA4 ligand-binding domain (from UniProt P54764) (P54764 30-209): as the sequence (P54764 30-209 limits assumed) above

Molecule	Motor neuron survival [1]	solubility [2]	Chemical shift perturbation to Met 115 (G-H loop) (EphA4-LBD)	Δδ Met 60 (EphA4-LBD)	Δδ Met 164 (EphA4-LBD)	N (ITC stoichiometry) [3]	Kd [3]	Kd [4]	Kd [5]
C[C@@H](NC(=O)[C@H](CCCCNC(=N)N)NC(=O)[C@H](Cc1ccc(-c2ccccc2)cc1)NC(=O)[C@H](Cc1c[nH]c2ccc(O)cc12)NC(=O)[C@H]1CCC[C@H](N)C1)C(=O)Nc1ccc(N2CCOCC2)cc1 [150E7, (1S,3S)-N-((S)-1-(((S)-3-([1,1'-biphenyl]-4-yl)-1-(((S)-6-guanidino-1-(((R)-1-((4-morpholinophenyl)amino)-1-oxopropan-2-yl)amino)-1-oxohexan-2-yl)amino)-1-oxopropan-2-yl)amino)-3-(5-hydroxy-1H-indol-3-yl)-1-oxopropan-2-yl)-3-aminocyclohexane-1-carboxamide] ({Cyclohexanoyl(1S,3S-3-NH2)}-[Trp(5-OH)][Bip][hArg][dA]-{NH(4-morpholinophenyl)})	effective at preventing motor neuron death	> 50 mM	do not alter loop G-H	+++ (+++ > 0.1 ppm)	++ (0.2 ppm < ++ < 0.25 ppm)	0.99	129 ± 4.5 nM	–	–
N=C(N)NCCCC[C@H](NC(=O)[C@H](Cc1ccc(-c2ccccc2)cc1)NC(=O)[C@H](Cc1c[nH]c2ccc(O)cc12)NC(=O)[C@H]1CCC[C@H](N)C1)C(=O)NCC(=O)Nc1ccc(N2CCNCC2)cc1 [150E8, (1S,3S)-N-((S)-1-(((S)-3-([1,1'-biphenyl]-4-yl)-1-(((S)-6-guanidino-1-oxo-1-((2-oxo-2-((4-(piperazin-1-yl)phenyl)amino)ethyl)amino)hexan-2-yl)amino)-1-oxopropan-2-yl)amino)-3-(5-hydroxy-1H-indol-3-yl)-1-oxopropan-2-yl)-3-aminocyclohexane-1-carboxamide] ({Cyclohexanoyl(1S,3S-3-NH2)}-[Trp(5-OH)][Bip][hArg]G-X1)	effective at preventing motor neuron death	> 50 mM	do not alter loop G-H	++ (0.05 ppm < ++ < 0.1 ppm)	++++ (++++ > 0.3 ppm)	1.01	94.3 ± 4.4 nM	–	–
EphA4 ligand-binding domain (from UniProt P54764)	–	–	–	–	–	–	–	360 nM	–
ephrinA5: intact ephrin ligand of EphA4 (protein, UniProt P52803 21-203, looked up) Ephrin-A5: QDPGSKAVADRYAVYWNSSNPRFQRGDYHIDVCINDYLDVFCPHYEDSVPEDKTERYVLYMVNFDGYSACDHTSKGFKRWECNRPHSPNGPLKFSEKFQLFTPFSLGFEFRPGREYFYISSAIPDNGRRSCLKLKVFVRPTNSCMKTIGVHDRVFDVNDKVENSLEPADDTVHESAEPSRGEN	–	–	–	–	–	–	–	–	~360 nM
ephrinA4: intact ephrin ligand of EphA4 (protein, UniProt P52798 26-170, looked up) Ephrin-A4: LRHVVYWNSSNPRLLRGDAVVELGLNDYLDIVCPHYEGPGPPEGPETFALYMVDWPGYESCQAEGPRAYKRWVCSLPFGHVQFSEKIQRFTPFSLGFEFLPGETYYYISVPTPESSGQCLRLQVSVCCKERKSESAHPVGSPGES	–	–	–	–	–	–	–	–	~360 nM
